Measured values published in patent publication US20250270201A1, “SUBSTITUTED PYRIMIDINYL HYDRAZIDE COMPOUND AND PREPARATION METHOD AND USE THEREOF” (ARIGENX THERAPEUTICS CO., LTD., priority 2022, published 2025).

Biological target: T1, AHR (Homo sapiens, UniProt P35869)
T1 construct: A human liver cancer cell line HepG2 endogenously expressing an AHR protein; host or cells: HepG2 stably transfected with a CYP1A1-promoter firefly luciferase reporter
T1 sequence (P35869 11-848): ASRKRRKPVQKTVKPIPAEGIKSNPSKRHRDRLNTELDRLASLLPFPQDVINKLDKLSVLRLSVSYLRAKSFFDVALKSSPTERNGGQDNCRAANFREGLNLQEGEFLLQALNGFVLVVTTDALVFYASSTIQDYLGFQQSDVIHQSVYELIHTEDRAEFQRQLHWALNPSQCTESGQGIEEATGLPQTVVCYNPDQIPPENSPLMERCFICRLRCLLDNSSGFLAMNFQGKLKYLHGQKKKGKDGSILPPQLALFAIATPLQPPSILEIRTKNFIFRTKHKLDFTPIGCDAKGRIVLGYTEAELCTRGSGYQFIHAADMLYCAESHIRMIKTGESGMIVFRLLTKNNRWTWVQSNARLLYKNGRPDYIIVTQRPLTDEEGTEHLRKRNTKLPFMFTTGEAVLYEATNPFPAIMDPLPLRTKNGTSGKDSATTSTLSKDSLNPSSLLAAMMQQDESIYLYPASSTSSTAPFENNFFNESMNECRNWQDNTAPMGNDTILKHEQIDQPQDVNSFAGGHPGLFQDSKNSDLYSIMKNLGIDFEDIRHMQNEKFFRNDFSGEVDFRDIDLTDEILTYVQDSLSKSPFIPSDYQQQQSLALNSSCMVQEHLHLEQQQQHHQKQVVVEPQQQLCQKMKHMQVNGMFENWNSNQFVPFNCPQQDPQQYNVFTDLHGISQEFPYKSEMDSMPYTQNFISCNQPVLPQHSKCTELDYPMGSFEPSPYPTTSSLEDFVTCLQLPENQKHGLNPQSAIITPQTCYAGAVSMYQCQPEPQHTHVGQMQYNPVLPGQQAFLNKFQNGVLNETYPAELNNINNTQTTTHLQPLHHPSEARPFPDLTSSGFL
Assay: Antagonistic effect for AHR in HepG2 cells stably transfected with CYP1A1-promoter firefly luciferase reporter
Assay type: cell-based
Details: AHR agonist-stimulated, 24 h compound treatment, average of two replicates
Text: A human liver cancer cell line HepG2 endogenously expressing an AHR protein (provided by the Stem Cell Bank of the Chinese Academy of Sciences) was adopted for testing. The expression of a CYP1A1 gene is regulated by an activity of AHR. After being activated, AHR can bind to a sequence called XRE on a CYP1A1 enhancer and initiate the expression of the CYP1A1 gene. To quantitatively determine an impact of a compound on the activity of AHR, a 1,200 bp (−1,143 to +57) regulatory sequence upstream of a promoter of the CYP1A1 gene was synthesized through gene synthesis and then inserted into a plasmid vector carrying firefly luciferase. The plasmid was then linearized through single enzyme cleavage and then transfected into HepG2 cells through lipofectin transfection (Lipofectamine 3000), and transfected HepG2 cells were screened by puromycin to obtain a stably-expressed cell line. When an antagonistic effect of a compound for AHR was tested, the expression of firefly luciferase was initiated by an AHR agonist (such as L-kynurenine, kynurenic acid, indirubin, TCDD, and 2-(1H-indol-3-ylcarbonyl)-4-thiazolecarboxylic acid methyl ester (ITE)), and cells were treated with the compound at different concentrations. Then, the inhibition on the expression of luciferase by the compound was measured.
Stably-transfected HepG2 cells were sub-cultivated in Minimum Eagle's medium (MEM) at 37° C. and 5% carbon dioxide. In the MEM, 1 mM sodium pyruvate, 2 mM GlutaMax, 1×non- essential amino acids, 10% Australian fetal bovine serum, 100 U/mL penicillin-streptomycin, and 5 μg/mL puromycin were supplemented. Before testing, HepG2 cells were inoculated into a 96-well plate at a density of 5-8×10^4 cells/well and cultivated for 24 h to 48 h to allow a cell confluency of about 90% before a drug treatment (puromycin was not added in a medium). Before the drug treatment, AHR agonist-containing 2×compound solutions at different concentrations were prepared with a same medium, and then a half of a cell culture medium in the 96-well plate was replaced with a 2×compound solution. An AHR agonist solution including only DMSO at a corresponding concentration was set as a negative control group, and CH223191 at a corresponding concentration (commercially available) was set as a positive control group. 2 separate replicate tests were set for each compound (including a positive control and a negative control). 24 h after the compound treatment, HepG2 cells were lysed by a Steady-Glo luciferase detection system of Promega, and a luciferase signal was measured by an InfiniteM1000 Pro microplate reader of Tecan.
In terms of data processing, for each replicate test of each compound, inhibition percentages of a compound at different concentrations on an activity of AHR were calculated sequentially with a signal of a well at a compound concentration of 0 as 100% and a cell signal of an untreated agonist as 0. Corresponding IC50 of a compound was calculated with an average value of data of two replicates according to the formula
tirougn non-nnear ning, where y represents an inhibition percentage and x represents a concentration of a corresponding compound.
IC50 for each compound was shown in Table 2, where A indicates IC50≤500 nM, B indicates 500 nM<IC50≤1.0 μM, C indicates 1 μM<IC50≤5.0 μM, and D indicates IC50>5.0 μM.

| Compound | IC50 |
| --- | --- |
| CC(C)N(NC(=O)c1cc(-c2ccc(C(F)(F)F)nc2)nc(-c2cccnc2)n1)C(C)CO (centres unmarked) [Compound 60] | 500 to 1000 nM |
| Cc1ccc(-c2cc(C(=O)NN(C(C)C)C(C)CO)nc(-c3cccnc3)n2)cn1 (centres unmarked) [Compound 50] | 500 to 1000 nM |
| C[C@H]1COCCN1NC(=O)c1cc(-c2ccc(OC(F)(F)F)cc2)nc(-c2cccnc2)n1 [Compound 6] | ≤ 500 nM |
| CC(C)N(CCO)NC(=O)c1cc(-c2ccc(C(F)(F)F)cc2)nc(-c2cnn(C)c2)n1 [Compound 20] | ≤ 500 nM |
| CCN(CCO)NC(=O)c1cc(-c2ccc(Cl)cc2)nc(-c2cccnc2)n1 [Compound 21] | ≤ 500 nM |
| O=C(NN1CCOC[C@@H]1CO)c1cc(-c2ccc(Cl)cc2)nc(-c2cccnc2)n1 [Compound 47] | ≤ 500 nM |
| O=C(NN1CCOCC1)c1cc(-c2ccc(C(F)(F)F)cc2)nc(-c2cccnc2)n1 [Compound 24] | 500 to 1000 nM |
| CC(C)N(NC(=O)c1cc(-c2ccc(C(F)(F)F)cc2)nc(-c2cccnc2)n1)S(C)(=O)=O [Compound 67] | ≤ 500 nM |
| CC1COCC(=O)N1NC(=O)c1cc(-c2ccc(Cl)cc2)nc(-c2cccnc2)n1 (centres unmarked) [Compound 28] | 500 to 1000 nM |
| CCN(NC(=O)c1cc(-c2ccc(C(F)(F)F)cc2)nc(-c2cccs2)n1)C(C)CO (centres unmarked) [Compound 56] | ≤ 500 nM |
| CCN(NC(=O)c1cc(-c2ccc(C(F)(F)F)cc2)nc(-c2cccc(C)c2)n1)C(C)CO (centres unmarked) [Compound 53] | 500 to 1000 nM |
| COc1ccc(-c2cc(C(=O)NN(C(C)C)C(C)CO)nc(-c3cccnc3)n2)cc1 (centres unmarked) [Compound 48] | 500 to 1000 nM |
| CCN(NC(=O)c1cc(-c2ccc(C(F)(F)F)cc2)nc(-c2cccc(F)c2)n1)C(C)CO (centres unmarked) [Compound 52] | ≤ 500 nM |
| CC1(C)CN(NC(=O)c2cc(-c3ccc(C(F)(F)F)cc3)nc(-c3cccnc3)n2)CCO1 [Compound 31] | 500 to 1000 nM |
| Cn1cc(-c2nc(C(=O)NN3CCOC[C@@H]3CO)cc(-c3ccc(C(F)(F)F)cc3)n2)cn1 [Compound 44] | ≤ 500 nM |
| C[C@@H]1COCCN1NC(=O)c1cc(-c2ccc(OC(F)(F)F)cc2)nc(-c2cccnc2)n1 [Compound 7] | ≤ 500 nM |
| O=C(NN1CCOC[C@H]1CO)c1cc(-c2ccc(Cl)cc2)nc(-c2cccnc2)n1 (stereo in doubt) [Compound 46] | ≤ 500 nM |
| Cn1cc(-c2nc(C(=O)NN3CCOC[C@H]3CO)cc(-c3ccc(Cl)cc3)n2)cn1 [Compound 36] | ≤ 500 nM |
| CC(C)N(NC(=O)c1cc(-c2ccc(C(F)(F)F)cc2)nc(-c2cccnc2)n1)C(C)CO (centres unmarked) [Compound 1, 6-(4-trifluoromethylenyl)-N-(1-hydroxypropyy1-2-yl)-N-isopropyl-2-(pyridin-3-yl)pyrimidin-4-hydrazide] | ≤ 500 nM |
| CC(C)NNC(=O)c1cc(-c2ccc(C(F)(F)F)cc2)nc(-c2cccnc2)n1 [Compound 10] | ≤ 500 nM |
| CC(=O)N(NC(=O)c1cc(-c2ccc(C(F)(F)F)cc2)nc(-c2cccnc2)n1)c1cnccn1 [Compound 33] | ≤ 500 nM |
| C[C@@H]1COCCN1NC(=O)c1cc(-c2ccc(OC(F)(F)F)cc2)nc(-c2cnn(C)c2)n1 [Compound 16] | ≤ 500 nM |
| CC(C)N(NC(=O)c1cc(-c2ccc(C(F)(F)F)cc2)nc(-c2cccc(F)c2)n1)C(C)CO (centres unmarked) [Compound 61] | ≤ 500 nM |
| CC1(C)COCCN1NC(=O)c1cc(-c2ccc(C(F)(F)F)cc2)nc(-c2cccnc2)n1 [Compound 27] | ≤ 500 nM |
| CC(C)N(CCO)NC(=O)c1cc(-c2ccc(Cl)cc2)nc(-c2cccnc2)n1 [Compound 19] | ≤ 500 nM |
| O=C(NN1CCOC[C@H]1CO)c1cc(-c2ccc(C(F)(F)F)cc2)nc(-c2cccnc2)n1 [Compound 42] | ≤ 500 nM |
| CC1(C)COCC(=O)N1NC(=O)c1cc(-c2ccc(C(F)(F)F)cc2)nc(-c2cccnc2)n1 [Compound 30] | ≤ 500 nM |
| C[C@H]1COCCN1NC(=O)c1cc(-c2ccc(C(F)(F)F)cc2)nc(-c2cccnc2)n1 [Compound 4] | ≤ 500 nM |

More lines, now with the values ahead:

| IC50 | Compound |
| --- | --- |
| ≤ 500 nM | C[C@@H]1COCCN1NC(=O)c1cc(-c2ccc(Cl)cc2)nc(-c2cccnc2)n1 [Compound 9] |
| 500 to 1000 nM | CCN(NC(=O)c1cc(-c2ccc(Cl)cc2)nc(-c2cccc(C)c2)n1)C(C)CO (centres unmarked) [Compound 55] |
| 500 to 1000 nM | CC(C)N(NC(=O)c1cc(-c2ccc(O)cc2)nc(-c2cccnc2)n1)C(C)CO (centres unmarked) [Compound 51] |
| ≤ 500 nM | O=C(NN1CCOC[C@@H]1CO)c1cc(-c2ccc(C(F)(F)F)cc2)nc(-c2cccnc2)n1 [Compound 43] |
| ≤ 500 nM | C[C@H]1COCCN1NC(=O)c1cc(-c2ccc(C(F)(F)F)cc2)nc(-c2cnn(C)c2)n1 [Compound 39] |
| ≤ 500 nM | CN(CCO)NC(=O)c1cc(-c2ccc(Cl)cc2)nc(-c2cccnc2)n1 [Compound 17] |
| 500 to 1000 nM | O=C(NN1CCC[C@H]1CO)c1cc(-c2ccc(Cl)cc2)nc(-c2cccnc2)n1 [Compound 22] |
| ≤ 500 nM | C[C@H]1COCCN1NC(=O)c1cc(-c2ccc(Cl)cc2)nc(-c2cnn(C)c2)n1 [Compound 41] |
| ≤ 500 nM | CCN(NC(=O)c1cc(-c2ccc(C(F)(F)F)cc2)nc(-c2cnsc2)n1)C(C)CO (centres unmarked) [Compound 57] |
| ≤ 500 nM | CC1COCC(C)N1NC(=O)c1cc(-c2ccc(OC(F)(F)F)cc2)nc(-c2cccnc2)n1 (centres unmarked) [Compound 3] |
| ≤ 500 nM | O=C(NN1CCOCC1CO)c1cc(-c2ccc(C(F)(F)F)cc2)nc(-c2cccnc2)n1 (centres unmarked) [Compound 23] |
| ≤ 500 nM | CC(C)N(NC(=O)c1cc(-c2ccc(C(F)(F)F)nc2)nc(-c2cccc(F)c2)n1)C(C)CO (centres unmarked) [Compound 37] |
| ≤ 500 nM | CC(C)N(NC(=O)c1cc(-c2ccc(OC(F)(F)F)cc2)nc(-c2cccnc2)n1)C(C)CO (centres unmarked) [Compound 14] |
| ≤ 500 nM | CN(CCO)NC(=O)c1cc(-c2ccc(C(F)(F)F)cc2)nc(-c2cnn(C)c2)n1 [Compound 18] |
| ≤ 500 nM | C[C@@H]1COCCN1NC(=O)c1cc(-c2ccc(C(F)(F)F)cc2)nc(-c2cccnc2)n1 [Compound 5] |
| ≤ 500 nM | CC(CO)NNC(=O)c1cc(-c2ccc(C(F)(F)F)cc2)nc(-c2cccnc2)n1 (centres unmarked) [Compound 13] |
| ≤ 500 nM | CC(=O)N(NC(=O)c1cc(-c2ccc(C(F)(F)F)cc2)nc(-c2cccnc2)n1)C(C)C [Compound 66] |
| ≤ 500 nM | C[C@H]1COCCN1NC(=O)c1cc(-c2ccc(OC(F)(F)F)cc2)nc(-c2cnn(C)c2)n1 [Compound 15] |
| ≤ 500 nM | CC1(C)COCCN1NC(=O)c1cc(-c2ccc(Cl)cc2)nc(-c2cccnc2)n1 [Compound 26] |
| 500 to 1000 nM | CC(C)N(NC(=O)c1cc(-c2ccc(N)cc2)nc(-c2cccnc2)n1)C(C)CO (centres unmarked) [Compound 63] |
| 500 to 1000 nM | CC(C)N(NC(=O)c1cc(-c2ccc(C(F)(F)F)nc2)nc(-c2cccc(F)c2)n1)C(C)CO (centres unmarked) [Compound 65] |
| ≤ 500 nM | O=C(NN1C(=O)COCC1CO)c1cc(-c2ccc(Cl)cc2)nc(-c2cccnc2)n1 (centres unmarked) [Compound 29] |
